# Data from ChEMBL document CHEMBL5303764, “Data for DCP probe BI-3812” (2023).
# The source made the active and inactive calls. The calls are words filed in the database; no cut-off is given here.
# Key:
# [1] = target: B-cell lymphoma 6 protein (Homo sapiens, UniProt P41182); experiment: BCL6:BCOR ULight TR-FRET
# [2] = target: B-cell CLL/lymphoma 6 member B protein (Homo sapiens, UniProt Q8N143); experiment: SPR (BCL6B), Ontario institute for cancer research
# [3] = target: Zinc finger and BTB domain-containing protein 32 (Homo sapiens, UniProt Q9Y2Y4); experiment: SPR (ZBTB32), Ontario institute for cancer research
# [4] = target: Prostaglandin G/H synthase 1 (Homo sapiens) (UniProt P23219); experiment: COX-1 Eurofins SafetyScreen44 (BI); conditions: Compound concentration 10.0 uM
# [5] = target: 5-hydroxytryptamine receptor 2B (Homo sapiens) (UniProt P41595); experiment: 5HT2B/H AG Eurofins SafetyScreen44 (BI); conditions: filed as agonist, Compound concentration 10.0 uM
# [6] = target: Adenosine receptor A2a (Homo sapiens) (UniProt P29274); experiment: A2A/H Eurofins SafetyScreen44 (BI); conditions: filed as antagonist, Compound concentration 10.0 uM
# [7] = target: Angiotensin-converting enzyme (Homo sapiens) (UniProt P12821); experiment: ACE(HU_AMTCH400) Eurofins SafetyScreen44 (BI); conditions: Compound concentration 10.0 uM
# [8] = target: Histamine H1 receptor (Homo sapiens) (UniProt P35367); experiment: H1/PYRIL/HS Eurofins SafetyScreen44 (BI); conditions: Compound concentration 10.0 uM
# [9] = target: Tyrosine-protein kinase Lck (Homo sapiens) (UniProt P06239); experiment: LCK_CE Eurofins SafetyScreen44 (BI); conditions: Compound concentration 10.0 uM
# [10] = target: Muscarinic acetylcholine receptor M2 (Homo sapiens) (UniProt P08172); experiment: M2/H Eurofins SafetyScreen44 (BI); conditions: filed as antagonist, Compound concentration 10.0 uM
# [11] = target: MAO-A (amine oxidase [flavin-containing] A) (Rattus norvegicus, UniProt P21396); experiment: MAO-A_ANTAG Eurofins SafetyScreen44 (BI); set-up: scale not given: the % may be the effect or the level left; conditions: compound concentration 10 uM, read-out: % Ctrl
# [12] = target: voltage-gated Na+ channel (site 2) (Rattus norvegicus, UniProt F1LQQ7+O08562+O88420+O88457+P04774+P04775+P08104+P15389+P15390+Q62968); experiment: NA+/SITE2/R Eurofins SafetyScreen44 (BI); type: protein assay; conditions: rat brain, probe [3H]batrachotoxinin, compound concentration 10 uM, read-out: % Ctrl
# [13] = target: 3',5'-cyclic-AMP phosphodiesterase 4D (Homo sapiens) (UniProt Q08499); experiment: PDE4D2 Eurofins SafetyScreen44 (BI); conditions: Compound concentration 10.0 uM
# [14] = target: Dual specificity protein kinase CLK1 (Homo sapiens) (UniProt P49759); experiment: CLK1 Invitrogen Lab (UK) kinase screen (BI); conditions: Compound concentration 1.0 uM
# [15] = target: Casein kinase I isoform alpha (Homo sapiens) (UniProt P48729); experiment: CSNK1A1 Invitrogen Lab (UK) kinase screen (BI); conditions: Compound concentration 1.0 uM
# [16] = target: Epidermal growth factor receptor (Homo sapiens) (UniProt P00533); experiment: EGFR Invitrogen Lab (UK) kinase screen (BI); conditions: Compound concentration 1.0 uM
# [17] = target: Ephrin type-A receptor 2 (Homo sapiens) (UniProt P29317); experiment: EPHA2 Invitrogen Lab (UK) kinase screen (BI); conditions: Compound concentration 1.0 uM
# [18] = target: Fibroblast growth factor receptor 1 (Homo sapiens) (UniProt P11362); experiment: FGFR1 Invitrogen Lab (UK) kinase screen (BI); conditions: Compound concentration 1.0 uM
# [19] = target: Tyrosine-protein kinase ITK/TSK (Homo sapiens) (UniProt Q08881); experiment: ITK Invitrogen Lab (UK) kinase screen (BI); conditions: Compound concentration 1.0 uM
# [20] = target: Leucine-rich repeat serine/threonine-protein kinase 2 (Homo sapiens) (UniProt Q5S007); experiment: LRRK2 Invitrogen Lab (UK) kinase screen (BI); conditions: Compound concentration 1.0 uM
# [21] = target: Tyrosine-protein kinase Lyn (Homo sapiens) (UniProt P07948); experiment: LYN A Invitrogen Lab (UK) kinase screen (BI); conditions: Compound concentration 1.0 uM
# [22] = target: Dual specificity mitogen-activated protein kinase kinase 1 (Homo sapiens) (UniProt Q02750); experiment: MAP2K1 Invitrogen Lab (UK) kinase screen (BI); conditions: Compound concentration 1.0 uM
# [23] = target: Dual specificity mitogen-activated protein kinase kinase 2 (Homo sapiens) (UniProt P36507); experiment: MAP2K2 Invitrogen Lab (UK) kinase screen (BI); conditions: Compound concentration 1.0 uM
# [24] = target: Mitogen-activated protein kinase 14 (Homo sapiens) (UniProt Q16539); experiment: MAPK14 Invitrogen Lab (UK) kinase screen (BI); conditions: Compound concentration 1.0 uM
# [25] = target: MAP kinase-activated protein kinase 2 (Homo sapiens) (UniProt P49137); experiment: MAPKAPK2 Invitrogen Lab (UK) kinase screen (BI); conditions: Compound concentration 1.0 uM
# [26] = target: MAP kinase-activated protein kinase 3 (Homo sapiens) (UniProt Q16644); experiment: MAPKAPK3 Invitrogen Lab (UK) kinase screen (BI); conditions: Compound concentration 1.0 uM
# [27] = target: Serine/threonine-protein kinase Nek1 (Homo sapiens) (UniProt Q96PY6); experiment: NEK1 Invitrogen Lab (UK) kinase screen (BI); conditions: Compound concentration 1.0 uM
# [28] = target: Serine/threonine-protein kinase PAK 4 (Homo sapiens) (UniProt O96013); experiment: PAK4 Invitrogen Lab (UK) kinase screen (BI); conditions: Compound concentration 1.0 uM
# [29] = target: Phosphatidylinositol 4,5-bisphosphate 3-kinase catalytic subunit gamma isoform (Homo sapiens) (UniProt P48736); experiment: PIK3CG Invitrogen Lab (UK) kinase screen (BI); conditions: Compound concentration 1.0 uM
# [30] = target: Rho-associated protein kinase 2 (Homo sapiens) (UniProt O75116); experiment: ROCK2 Invitrogen Lab (UK) kinase screen (BI); conditions: Compound concentration 1.0 uM
# [31] = target: 5-hydroxytryptamine receptor 1A (Homo sapiens) (UniProt P08908); conditions: Compound concentration 10.0 uM
# [32] = target: 5-hydroxytryptamine receptor 2A (Homo sapiens) (UniProt P28223); conditions: Compound concentration 10.0 uM
# [33] = target: 5-hydroxytryptamine receptor 2C (Homo sapiens) (UniProt P28335); conditions: Compound concentration 10.0 uM
# [34] = target: 5-hydroxytryptamine receptor 7 (Homo sapiens) (UniProt P34969); conditions: Compound concentration 10.0 uM
# [35] = target: Sodium-dependent noradrenaline transporter (Homo sapiens) (UniProt P23975); conditions: Compound concentration 10.0 uM
# [36] = target: Delta-type opioid receptor (Homo sapiens) (UniProt P41143); conditions: Compound concentration 10.0 uM
# [37] = target: Kappa-type opioid receptor (Homo sapiens) (UniProt P41145); conditions: Compound concentration 10.0 uM
# [38] = target: Muscarinic acetylcholine receptor M3 (Homo sapiens, UniProt P20309); conditions: Compound concentration 10.0 uM
# [39] = target: Muscarinic acetylcholine receptor M5 (Homo sapiens) (UniProt P08912); conditions: Compound concentration 10.0 uM
# [40] = target: GABA-A receptor; anion channel (Rattus norvegicus) (UniProt O09028+P15431+P18506+P18508+P19969+P20236+P23574+P23576+P28471+P28473+P30191+P62813+P63079+P63138+Q91ZM7+Q9ES14); conditions: Compound concentration 10.0 uM
# [41] = target: Alpha-1D adrenergic receptor (Homo sapiens) (UniProt P25100); conditions: Compound concentration 10.0 uM
# Alpha-1D adrenergic receptor (Homo sapiens), sequence (P25100 whole entry): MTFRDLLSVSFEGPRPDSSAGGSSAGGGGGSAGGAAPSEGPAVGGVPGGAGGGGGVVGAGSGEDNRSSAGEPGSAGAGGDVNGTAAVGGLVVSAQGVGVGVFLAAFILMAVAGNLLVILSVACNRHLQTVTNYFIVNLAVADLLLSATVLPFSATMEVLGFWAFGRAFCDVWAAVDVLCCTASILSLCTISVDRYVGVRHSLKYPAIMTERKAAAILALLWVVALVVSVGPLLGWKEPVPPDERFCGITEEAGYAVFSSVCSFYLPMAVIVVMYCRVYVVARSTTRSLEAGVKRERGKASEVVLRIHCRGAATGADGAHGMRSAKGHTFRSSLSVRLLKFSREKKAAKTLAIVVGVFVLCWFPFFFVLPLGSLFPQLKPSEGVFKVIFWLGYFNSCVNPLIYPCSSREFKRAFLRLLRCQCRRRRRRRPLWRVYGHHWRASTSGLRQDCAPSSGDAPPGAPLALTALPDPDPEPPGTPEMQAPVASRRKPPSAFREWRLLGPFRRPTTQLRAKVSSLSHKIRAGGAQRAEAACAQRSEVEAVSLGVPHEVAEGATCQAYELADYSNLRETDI
# Kappa-type opioid receptor (Homo sapiens), sequence (P41145 whole entry): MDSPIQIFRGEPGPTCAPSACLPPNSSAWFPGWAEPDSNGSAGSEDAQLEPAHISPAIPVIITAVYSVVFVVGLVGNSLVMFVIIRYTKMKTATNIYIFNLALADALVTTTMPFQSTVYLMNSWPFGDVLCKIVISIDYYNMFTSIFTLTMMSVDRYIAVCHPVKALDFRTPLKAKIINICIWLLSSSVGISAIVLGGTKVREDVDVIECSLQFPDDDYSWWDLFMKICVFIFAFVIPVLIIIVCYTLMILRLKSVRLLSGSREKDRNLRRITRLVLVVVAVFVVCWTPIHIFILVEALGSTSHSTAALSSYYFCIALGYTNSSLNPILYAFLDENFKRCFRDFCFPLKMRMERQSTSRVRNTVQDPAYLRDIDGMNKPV
# Sodium-dependent noradrenaline transporter (Homo sapiens), sequence (P23975 whole entry): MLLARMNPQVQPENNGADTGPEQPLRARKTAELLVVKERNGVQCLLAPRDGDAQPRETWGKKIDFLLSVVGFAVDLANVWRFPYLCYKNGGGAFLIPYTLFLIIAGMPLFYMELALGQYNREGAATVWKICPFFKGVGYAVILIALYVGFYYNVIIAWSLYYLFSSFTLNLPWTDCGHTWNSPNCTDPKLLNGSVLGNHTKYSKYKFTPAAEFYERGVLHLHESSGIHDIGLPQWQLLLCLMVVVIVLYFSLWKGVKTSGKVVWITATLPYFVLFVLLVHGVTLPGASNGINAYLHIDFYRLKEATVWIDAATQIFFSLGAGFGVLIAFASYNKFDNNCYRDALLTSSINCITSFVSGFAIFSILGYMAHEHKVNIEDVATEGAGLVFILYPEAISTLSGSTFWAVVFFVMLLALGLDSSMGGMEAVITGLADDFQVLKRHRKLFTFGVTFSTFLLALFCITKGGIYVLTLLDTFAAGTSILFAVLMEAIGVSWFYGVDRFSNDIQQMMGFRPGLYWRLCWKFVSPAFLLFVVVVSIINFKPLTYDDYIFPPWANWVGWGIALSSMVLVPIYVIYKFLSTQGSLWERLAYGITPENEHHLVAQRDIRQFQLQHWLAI
# 5-hydroxytryptamine receptor 2A (Homo sapiens), sequence (P28223 whole entry): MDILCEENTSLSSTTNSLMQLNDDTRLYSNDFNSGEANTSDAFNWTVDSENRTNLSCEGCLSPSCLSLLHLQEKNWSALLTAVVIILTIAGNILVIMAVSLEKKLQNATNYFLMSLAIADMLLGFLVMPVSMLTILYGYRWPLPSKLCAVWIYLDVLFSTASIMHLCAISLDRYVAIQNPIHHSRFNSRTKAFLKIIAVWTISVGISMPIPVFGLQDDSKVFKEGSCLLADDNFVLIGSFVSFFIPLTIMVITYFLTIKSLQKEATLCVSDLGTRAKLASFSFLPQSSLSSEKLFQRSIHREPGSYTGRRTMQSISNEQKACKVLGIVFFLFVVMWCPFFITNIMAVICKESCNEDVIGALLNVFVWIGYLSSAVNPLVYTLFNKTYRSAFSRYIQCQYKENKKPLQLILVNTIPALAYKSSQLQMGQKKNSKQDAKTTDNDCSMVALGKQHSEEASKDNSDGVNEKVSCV
# Delta-type opioid receptor (Homo sapiens), sequence (P41143 whole entry): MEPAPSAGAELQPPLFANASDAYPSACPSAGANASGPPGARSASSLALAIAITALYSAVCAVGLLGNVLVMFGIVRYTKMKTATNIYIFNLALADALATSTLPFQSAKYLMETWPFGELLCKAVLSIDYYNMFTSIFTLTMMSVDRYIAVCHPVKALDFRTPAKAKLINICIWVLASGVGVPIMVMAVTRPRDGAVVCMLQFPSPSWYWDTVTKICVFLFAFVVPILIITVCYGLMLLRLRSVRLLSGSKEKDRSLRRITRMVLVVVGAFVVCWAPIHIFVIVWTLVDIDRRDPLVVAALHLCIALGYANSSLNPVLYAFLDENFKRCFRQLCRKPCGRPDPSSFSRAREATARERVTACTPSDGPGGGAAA
# 5-hydroxytryptamine receptor 2C (Homo sapiens), sequence (P28335 whole entry): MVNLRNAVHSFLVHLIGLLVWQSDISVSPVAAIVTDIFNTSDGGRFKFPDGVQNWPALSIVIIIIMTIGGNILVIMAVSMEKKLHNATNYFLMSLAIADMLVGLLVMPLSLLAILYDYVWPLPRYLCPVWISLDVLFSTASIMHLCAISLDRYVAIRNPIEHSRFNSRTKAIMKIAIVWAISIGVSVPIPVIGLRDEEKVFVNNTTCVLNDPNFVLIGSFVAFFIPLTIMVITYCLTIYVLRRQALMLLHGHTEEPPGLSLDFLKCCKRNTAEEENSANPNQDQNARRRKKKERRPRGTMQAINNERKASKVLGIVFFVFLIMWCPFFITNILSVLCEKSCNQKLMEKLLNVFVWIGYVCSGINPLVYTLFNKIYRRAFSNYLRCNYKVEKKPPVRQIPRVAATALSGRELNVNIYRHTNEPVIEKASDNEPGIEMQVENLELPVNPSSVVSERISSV
# Muscarinic acetylcholine receptor M5 (Homo sapiens), sequence (P08912 whole entry): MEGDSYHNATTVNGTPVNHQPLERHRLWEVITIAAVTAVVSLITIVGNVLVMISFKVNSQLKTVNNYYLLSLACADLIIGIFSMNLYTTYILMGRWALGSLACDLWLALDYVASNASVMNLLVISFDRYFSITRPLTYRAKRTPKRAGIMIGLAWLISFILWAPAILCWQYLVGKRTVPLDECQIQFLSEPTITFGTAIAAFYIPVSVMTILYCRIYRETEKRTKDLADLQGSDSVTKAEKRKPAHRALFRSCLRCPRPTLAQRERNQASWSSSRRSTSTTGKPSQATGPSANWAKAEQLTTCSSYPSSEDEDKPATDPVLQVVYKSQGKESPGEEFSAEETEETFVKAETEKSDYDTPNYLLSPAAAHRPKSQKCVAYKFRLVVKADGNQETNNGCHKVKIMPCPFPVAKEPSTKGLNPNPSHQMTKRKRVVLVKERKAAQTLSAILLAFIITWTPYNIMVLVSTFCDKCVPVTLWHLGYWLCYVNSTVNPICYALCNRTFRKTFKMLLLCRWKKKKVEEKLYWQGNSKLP
# 5-hydroxytryptamine receptor 7 (Homo sapiens), sequence (P34969 whole entry): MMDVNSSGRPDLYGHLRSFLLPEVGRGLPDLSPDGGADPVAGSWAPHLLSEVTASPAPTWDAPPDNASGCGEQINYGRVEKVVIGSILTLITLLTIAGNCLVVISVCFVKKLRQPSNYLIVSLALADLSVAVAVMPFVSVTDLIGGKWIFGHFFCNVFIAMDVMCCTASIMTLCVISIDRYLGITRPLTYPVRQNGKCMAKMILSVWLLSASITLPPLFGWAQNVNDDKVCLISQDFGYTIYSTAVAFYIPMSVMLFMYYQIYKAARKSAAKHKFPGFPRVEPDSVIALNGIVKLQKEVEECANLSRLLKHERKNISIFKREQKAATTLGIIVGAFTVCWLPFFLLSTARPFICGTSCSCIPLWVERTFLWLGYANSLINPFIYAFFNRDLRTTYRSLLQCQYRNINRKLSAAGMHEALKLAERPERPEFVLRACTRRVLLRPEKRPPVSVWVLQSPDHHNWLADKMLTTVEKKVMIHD
# 5-hydroxytryptamine receptor 1A (Homo sapiens), sequence (P08908 whole entry): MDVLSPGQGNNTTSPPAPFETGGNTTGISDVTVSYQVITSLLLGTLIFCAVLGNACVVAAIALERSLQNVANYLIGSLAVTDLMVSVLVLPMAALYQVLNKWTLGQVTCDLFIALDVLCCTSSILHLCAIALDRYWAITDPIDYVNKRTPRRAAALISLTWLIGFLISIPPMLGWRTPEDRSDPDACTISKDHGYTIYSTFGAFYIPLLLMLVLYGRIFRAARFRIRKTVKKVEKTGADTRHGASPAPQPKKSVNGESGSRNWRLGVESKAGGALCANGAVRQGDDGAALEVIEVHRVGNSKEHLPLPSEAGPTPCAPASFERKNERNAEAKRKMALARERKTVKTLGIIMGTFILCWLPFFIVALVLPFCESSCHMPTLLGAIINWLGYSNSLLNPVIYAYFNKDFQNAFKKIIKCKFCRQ
# Muscarinic acetylcholine receptor M3, sequence (P20309 whole entry, looked up): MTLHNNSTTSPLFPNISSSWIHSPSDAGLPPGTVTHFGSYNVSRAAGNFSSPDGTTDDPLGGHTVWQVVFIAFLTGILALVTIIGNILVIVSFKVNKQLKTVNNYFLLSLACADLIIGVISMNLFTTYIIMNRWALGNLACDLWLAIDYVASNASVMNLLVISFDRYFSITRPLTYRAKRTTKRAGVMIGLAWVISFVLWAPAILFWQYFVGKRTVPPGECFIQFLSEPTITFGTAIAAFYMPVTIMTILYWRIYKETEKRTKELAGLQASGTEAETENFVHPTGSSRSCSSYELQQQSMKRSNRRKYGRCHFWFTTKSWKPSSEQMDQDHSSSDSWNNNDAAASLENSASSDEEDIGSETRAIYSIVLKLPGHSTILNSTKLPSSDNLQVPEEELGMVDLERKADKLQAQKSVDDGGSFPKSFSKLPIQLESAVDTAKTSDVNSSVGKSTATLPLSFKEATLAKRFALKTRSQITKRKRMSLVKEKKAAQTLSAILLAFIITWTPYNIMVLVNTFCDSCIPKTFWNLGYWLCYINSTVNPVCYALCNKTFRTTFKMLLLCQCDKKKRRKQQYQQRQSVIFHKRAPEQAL
smiles,measurement,setting,value
CNC(=O)COc1cc2cc(Nc3nc(N4CCC(C(=O)N(C)C)CC4)ncc3Cl)cc(OC)c2n(C)c1=O,IC50,[1],≤ 3 nM (active)
same,Kd,[2],3.68 µM (not active)
same,Kd,[3],No binding
same,residual activity,[4],118%
same,residual activity,[5],131%
same,residual activity,[6],86%
same,residual activity,[7],96%
same,residual activity,[8],97%
same,residual activity,[9],99%
same,residual activity,[10],13%
same,activity at 10 µM,[11],103% (not active)
same,activity at 10 µM,[12],84% (not active)
same,residual activity,[13],121%
same,residual activity,[14],88%
same,residual activity,[15],91%
same,residual activity,[16],100%
same,residual activity,[17],99%
same,residual activity,[18],86%
same,residual activity,[19],83%
same,residual activity,[20],111%
same,residual activity,[21],101%
same,residual activity,[22],100%
same,residual activity,[23],95%
same,residual activity,[24],88%
same,residual activity,[25],91%
same,residual activity,[26],99%
same,residual activity,[27],98%
same,residual activity,[28],82%
same,residual activity,[29],98%
same,residual activity,[30],97%
same,inhibition,[31],22.9%
same,inhibition,[32],7.86%
same,inhibition,[33],-2.05%
same,inhibition,[34],18.2%
same,inhibition,[35],4.8%
same,inhibition,[36],17.6%
same,inhibition,[37],15.4%
same,inhibition,[38],65.8%
same,inhibition,[39],-7.06%
same,inhibition,[40],39.6%
same,inhibition,[41],2.72%
